Values of other authors, collected in US8128952B2, “Ligand-mediated controlled drug delivery” (Clemson University Research Foundation, priority 2005, dated 2012).

Target: human growth hormone (hGH) (Homo sapiens, UniProt P01241)
Details: interaction between hGH and Zn-EDTA

human growth hormone (hGH), sequence (P01241 27-217): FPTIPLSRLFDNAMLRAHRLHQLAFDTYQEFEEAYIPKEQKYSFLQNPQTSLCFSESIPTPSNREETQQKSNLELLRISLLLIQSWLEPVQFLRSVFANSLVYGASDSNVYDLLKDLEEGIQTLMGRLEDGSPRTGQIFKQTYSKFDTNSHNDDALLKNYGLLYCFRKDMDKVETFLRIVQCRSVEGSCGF

Kd: 380 µM
SMILES: O=C([O-])CN(CCN(CC(=O)O)CC(=O)O)CC(=O)[O-].[Zn+2] [Zn-EDTA, Zn-ethylenediamine tetraacetic acid]
